The values that follow come from patent publication US12036189B2, “Method of treating major depressive disorder” (priority 2018, dated 2024).

Data set [1] has as its system human peripheral blood lymphocytes (HPBL). How it is done:
The clastogenic potential of esketamine was evaluated in the in vitro mammalian chromosome aberration test using human peripheral blood lymphocytes (HPBL) in both the absence and presence of an induced metabolic activation system (the 9000 g supernatant [S9] microsomal fraction of liver homogenate from rats exposed to Aroclor-1254).
The study was conducted in 2 phases, with a preliminary toxicity test used to determine the appropriate concentrations for the definitive chromosomal aberration assay. Water was used as a negative (vehicle) control. Toxicity (defined as ≥45% reduction in MI relative to the vehicle control) was evaluated at 9 concentrations, ranging from 0.0238 to 238 μg/ml, after exposure of HPBL to esketamine for 20 hours in the absence of S9 activation, or for 4 hours, either in the presence or absence of S9 activation, followed by a 16-hour recovery period.
The definitive chromosome aberration assay evaluated HPBL cells after exposure to esketamine for 20 hours in the absence of S9 activation, or for 4 hours, either in the presence of absence of S9 activation, followed by a 16-hour recovery. Positive controls for chromosomal aberrations in non-activated and S9-activated evaluations, respectively, consisted of mitomycin C (MMC, 0.6 and 0.3 μg/mL for the 4- and 20-hour exposures, respectively) and cyclophosphamide (CP, 2.5, 5, and 7.5 μg/mL). […] Initially, the doses selected for evaluation of chromosomal aberrations were 60, 120, and 238 μg/mL for the non-activated 4- and 20-hour treatment conditions; and 30, 60, and 200 μg/mL for the S9-activated 4-hour treatment condition.

The subject of data set [2] is animal models of depression. To be noted: cited from earlier work.
In data set [3] the test system is human peripheral blood lymphocytes (HPBL). This is another data set of the same source.
Protocol: The study was conducted in 2 phases, with a preliminary toxicity test used to determine the appropriate concentrations for the definitive chromosomal aberration assay. Water was used as a negative (vehicle) control. In both phases, the cells were treated for 3 and 21 hours in the absence of S9 mix and for 3 hours in the presence of S9 mix. The mitotic index was assessed for all cultures to determine cytotoxicity. Ten concentrations, ranging from 2.62 to 260.16 μg/mL, were evaluated in the preliminary toxicity test. […] S-Norketamine concentrations of 93.66, 156.10 or 260.16 μg/mL were selected for metaphase analysis.
The nature of data set [4]: Repeated dose 28 day study, toxicokinetics. The conditions noted are these: male rats, Day 28. How it is done:
The objective of the study was to assess the potential toxicity, neurobehavioral effects, and toxicokinetics (TK) of esketamine when administered orally, via gavage, to Sprague Dawley rats for 28 days and to evaluate recovery during a 14-day drug-free period. Fifty male and 50 female rats were randomized into 4 groups (15/sex/Groups 1 and 4; 10/sex/Groups 2 and 3). Esketamine was administered via oral gavage once daily for 28 consecutive days to males at 0 (vehicle control), 6, 10 or 30 mg/kg/day and females at 0 (vehicle control), 2, 10 or 20 mg/kg/day in a dose volume of 10 mL/kg. Animals were observed until euthanized and necropsied on Day 29 (10/sex/group) or 43 (5/sex from Groups 1 and 4). Toxicity was evaluated based on mortality, clinical observations, body weights, food consumption, ophthalmology, motor activity, functional observational battery, clinical pathology (clinical chemistry, hematology, coagulation and urinalysis), organ weights, anatomic (macroscopic or microscopic) pathology. Toxicokinetic animals (3/sex/Group 1; 6/sex/Groups 2, 3, and 4) were similarly dosed and bled on Day 1 and during Week 4 for toxicokinetic analysis.

Data set [5] can be described thus: Single dose, randomized, open-label crossover study, pharmacokinetics. The conditions noted are these: esketamine hydrochloride, 15 subjects. The text has this: A randomized, open-label 4-way crossover study in 16 healthy male and female subjects was held wherein said subjects were placed in a randomly assigned order and administered esketamine. Each subject was assigned to 1 of 4 treatment sequences according to a randomization code such that 4 subjects were assigned to each treatment sequence. There was a wash-out period of at least 7 days between dosing periods with dosing consisting of either oral or intravenous esketamine hydrochloride. The study consisted of an eligibility screening period of 28 days, 4 study periods involving administration of a single dose of esketamine hydrochloride followed by safety assessments with blood sampling for PK purposes up to 72 hours after study drug administration, discharge at 72 hours after study drug administration and a follow-up visit 7-14 days after the last PK blood sample was taken on Day 4.

In the next data set the test system is liver of Crl:CD(SD) rats. Nature of the data set: In vivo single cell gel electrophoresis (comet) assay, DNA strand breaks in the liver.

On to `O=P1(N(CCCl)CCCl)NCCCO1` (stereo not shown) [CP, cyclophosphamide], for which, in data set [1] (S9-activated system, positive control 2.5, 5 and 7.5 μg/mL), the “structural aberrations, % of the cells” value is given as 10.7%.
With `CN[C@@]1(c2ccccc2Cl)CCCCC1=O` [(R)-ketamine, (2R)-2-(2-Chlorophenyl)-2-(methylamino) cyclohexanone], the “psychotomimetic side effects and abuse liability” value in data set [2] was “without psychotomimetic side effects and abuse liability”.
Regarding `N[C@]1(c2ccccc2Cl)CCCCC1=O` [S-norketamine], in data set [3], the “Toxicity (mitotic index)” value is given as “not observed at any dose”; the “induction of structural and numerical chromosomal aberrations” value is “negative”.
For `CN[C@]1(c2ccccc2Cl)CCCCC1=O` [esketamine, (2S)-2-(2-Chlorophenyl)-2-(methylamino) cyclohexanone], the “Toxicity (≥45% reduction in MI relative to the vehicle control)” value in data set [1] is “not observed at any dose”. In addition, the “doses at which cytotoxicity (≥45% reduction in mitotic index) was observed” value in data set [1] (human) is at least 200 µg/mL. The molecule further yielded a t1/2 in data set [4] (10 mg/kg oral gavage) of 0.6 h. The AUC0-t in data set [4] (30 mg/kg oral gavage) is 575 ng·h/mL. The “AUC0-inf, Geometric mean” value is 257.14 ng·h/mL in data set [5] (0.3 mg/kg iv), 25.82 ng·h/mL in data set [5] (20 mg oral solution), 22.46 ng·h/mL in data set [5] (20 mg oral tablet) and 180.84 ng·h/mL in data set [5] (100 mg oral tablet). For the same molecule, the “AUC0-t, Geometric mean” value came to 249.15 ng·h/mL in data set [5] (0.3 mg/kg iv), 23.44 ng·h/mL in data set [5] (20 mg oral solution), 20.05 ng·h/mL in data set [5] (20 mg oral tablet) and 172.71 ng·h/mL in data set [5] (100 mg oral tablet). The “Cmax, Geometric mean” value came out at 94.50 ng/mL in data set [5] (0.3 mg/kg iv), 16.48 ng/mL in data set [5] (20 mg oral solution) and 65.34 ng/mL in data set [5] (100 mg oral tablet). For the same molecule, the “t1/2, Geometric mean” value in data set [5] (0.3 mg/kg iv) is listed as 10.16 h; in data set [5] (20 mg oral solution) it was 2.91 h; in data set [5] (20 mg oral), 2.84 h; in data set [5] (100 mg oral) it was 7.66 h. Moreover, the “tmax, Median” value in data set [5] (0.3 mg/kg iv) came to 1.00 h; in data set [5] (20 mg oral solution) it was 0.50 h; in data set [5] (20 mg oral tablet), 0.75 h; in data set [5] (100 mg oral tablet), 0.75 h. In addition, in the data set on liver of Crl:CD(SD) rats (female rats, 25 and 50 mg/kg/day oral gavage, three doses, p<0.001), the “median % TI in the liver vs vehicle control” value is reported as “Statistically significant increases”. Further, the “DNA strand breaks in the liver (study conclusion)” value with liver of Crl:CD(SD) rats (male and female rats, oral gavage) was “evidence of causing an increase in DNA strand breaks”. For the same molecule, in the data set with liver of Crl:CD(SD) rats (male rats, 75 mg/kg/day oral gavage, three doses, p<0.001), the “median % tail intensity (TI) in the liver vs vehicle control” value is on record as “Statistically significant increases”. Also, the “macroscopic examination after 3 doses” value in the data set with liver of Crl:CD(SD) rats (rat, in vivo) is “no test item related lesions”.
